Counter-ions that a name gives are not always drawn.
How the values were obtained:
[1] = Catechol sulfate stability followed by silica gel TLC; type: physicochemical
Excerpt: FIG. 29 is a reproduction of Silical gel TLC developed by Dichlorlmethane: MeOH:H2O=5:1:0.1, and colored by 12.

NGAL [2] = biological target: T1, NGAL (Homo sapiens, UniProt P80188); test: NGAL:siderophore:iron binding assay (retention on 10 kDa filter); settings: for NGAL: Chelator: Fe % Retention: apoNGAL 10 μM, 55Fe, compound 10 μM, pH 7.4, washed on 10 kDa filter; for NGAL-siderophore-Fe binding activity (in words): iron retention by NGAL on filter
T1 construct: made in house; host or cells: E. coli BL-21
T1 sequence (P80188 21-198): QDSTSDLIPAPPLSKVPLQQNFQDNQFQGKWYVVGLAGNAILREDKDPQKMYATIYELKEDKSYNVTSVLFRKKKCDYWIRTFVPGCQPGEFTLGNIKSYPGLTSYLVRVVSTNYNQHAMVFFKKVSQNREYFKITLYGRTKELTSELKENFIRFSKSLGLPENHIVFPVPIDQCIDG
Description: NGAL:Siderophore:Iron Binding Assays. […] After 60 minutes, the mixture was washed 3 times (YM-10) or alternatively gel filtered (PD-10, GE Biosciences). Ent loaded NGAL served as a positive control. Ferric citrate (1 mM) or Ent:iron (500 μM) served as competitors of ^55Fe binding.
After 60 minutes at room temperature, the mixture was then washed 3 times on a 10-kDa membrane (Amicon YM-10; Millipore Corp.). Ngal loaded with iron-free enterochelin (rather than apo-Ngal) served as a positive control for iron capture. Ferric citrate (1 mM) or iron-loaded enterochelin (siderophore:Fe, […]) was used as a competitor of 55Fe binding.

[3] = Siderophore:iron binding assay (paper chromatography); settings: for Fe: Chromatography: 55Fe mobilised by compound on paper chromatogram developed in water, Yes/No
Excerpt: Siderophore:Iron Binding Assay. To test whether candidates bound iron directly, candidates (1 nmole) were mixed with ^55Fe (1 pmole), and then separated bound from free ^55Fe using paper chromatography developed in water.
Paper chromatography: The Fe-Siderophore Binding Assay: The concept underlying the Ngal-siderophore-Fe binding assay is that the urinary molecule provides an iron binding siderophore, and that the Ngal protein provides the carrier which retains the siderophore:Fe on the 10 KDa filter. […] To directly test this idea, we will mix 55Fe with HMDB compounds and then separate bound from free 55Fe by using paper chromatography. […] The assay also provides an independent means to follow the purification of the urinary siderophore. Using this assay, we can measure the specific activity of the fractions to identify the peak activity, as well as to compare the urinary fraction with enterochelin to establish relative units of activity.

NGAL [4] = biological target: T1, NGAL; test: Release of ligands and iron from NGAL complexes by acidification; type: physicochemical; settings: fluorescence and 55Fe release
Excerpt: FIGS. 6A-6C. Release of ligands from NGAL by acidification. […] Fluorescence was quenched by ligand binding. Upon acidification, the ligands were released and fluorescence returned to baseline. Subsequent basification, where relevant, caused rebinding. Note that NGAL:pyrogallol and 2,3-dihydroxybenzoic acid complexes required much lower pH for dissociation. (B) Release of ^55Fe from different NGAL:catecholate complexes by low pH washes on a 10 KDa microcon. For this comparison, the retention of iron at pH7.0 was defined as 100%. […] Data were presented as mean±Std.
To transport iron from plasma to cells there has to be a mechanism for releasing iron from the complex. Intracellular delivery of iron by transferring is known to require passage through acidified endosomes where iron is released. […] While the complex was stable at neutral pH, acidification below pH 7.0 progressively reversed ligand-dependent fluorescence quenching of NGAL and released iron (FIG. 6A, B).
Fluorescence quenching binding assay. […] The pH was adjusted until the fluorescence signal stopped changing, while fluorescence values were corrected for dilution. Data were analyzed by a nonlinear regression analysis using a one-site binding model (Kuzmic, P. (1996). Program DYNAFIT for the analysis of enzyme kinetic data: application to HIV proteinase. Anal. Biochem. 237, 260-273). […]

NGAL [5] = biological target: T1, NGAL; test: Fluorescence quenching binding assay
Description: Fluorescence quenching binding assay. […] The pH was adjusted until the fluorescence signal stopped changing, while fluorescence values were corrected for dilution. […] Control experiments were performed to ensure the stability of the protein at experimental conditions, including the dilution and the addition of DMSO and ubiquitin.

Mouse stromal cells = test: Capture of NGAL:siderophore:55Fe by stromal cells; type: cell-based; settings: bafilomycin inhibits vacuolar H+ ATPase
Description: Capture of NGAL:Siderophore:Iron. Mouse stromal cells (10^5) were grown in MEM, 10% FCS for 24 hrs and FCS subsequently removed. […] Cells were washed 3 times and extracted with 0.2% SDS.

| Molecule | NGAL: Chelator: Fe % Retention (NGAL [2]) [%] | Fe: Chromatography [3] | further results |
| --- | --- | --- | --- |
| O=S(=O)([O-])Oc1ccccc1O.[Na+] | 4 | – | stability in methanol at pH≦6 ([1]; incubated for 1 hour): decompose; stability in urine ([1]; incubated for 48 hours): stable |
| Cc1cccc(O)c1O [3-methylcatechol] | 56 | Yes | pH at which the NGAL:ligand:iron complex dissociates (NGAL [4]): 5.5 pH; NGAL-siderophore-Fe binding activity (in words) (NGAL [2]): highest activities |
| Cc1ccc(O)c(O)c1 [4-methylcatechol] | 29 | Yes | affinity for NGAL (in words) (NGAL [5]): low affinity; NGAL-siderophore-Fe binding activity (in words) (NGAL [2]): highest activities |
| NC(=O)c1ccc[n+]([C@@H]2O[C@H](COP(=O)(O)OP(=O)(O)OC[C@H]3O[C@@H](n4cnc5c(N)ncnc54)[C@H](OP(=O)(O)O)[C@@H]3O)[C@@H](O)[C@H]2O)c1 [NADP] | 7 | Yes | iron chelating activity by paper chromatography (in words) [3]: active |
| NC(=O)c1ccc[n+]([C@@H]2O[C@H](COP(=O)(O)OP(=O)(O)OC[C@H]3O[C@@H](n4cnc5c(N)ncnc54)[C@H](O)[C@@H]3O)[C@@H](O)[C@H]2O)c1 [NAD] | 12 | No | – |
| O=C(O)c1cccnc1 [Nicotinic acid] | 3 | No | – |
| O=C(O)c1cc(=O)[nH]c(=O)[nH]1 [Orotic acid] | 13 | No | – |
| NCc1[nH]cc(CCC(=O)O)c1CC(=O)O [Porphobilinogen] | 3 | No | – |
| Cc1ncc(CO)c(C=O)c1O [Pyridoxal] | 1 | No | – |
| O=C(/C=C/c1ccc(O)c(O)c1)O[C@H](Cc1ccc(O)c(O)c1)C(=O)O [Rosmarinic acid] | 50 | Yes | iron chelating activity by paper chromatography (in words) [3]: active; NGAL-siderophore-Fe binding activity (in words) (NGAL [2]): active |
| O=C(O)c1ccccc1O [Salicylic acid] | 15 | No | – |
| CCC1C(=O)NC(CC2=N/C(=C\c3[nH]c(CC4NC(=O)C(C)C4CC)c(C)c3CCC(=O)O)C(CCC(=O)O)=C2C)C1C (centres unmarked) [Urobilin HCl] | 3 | No | – |
| CO/C1=C\C(C)=C\[C@@H](C)[C@@H](O)[C@@H](C)C/C(C)=C/C=C/[C@H](OC)[C@@H]([C@@H](C)[C@@H](O)[C@H](C)[C@@]2(O)C[C@@H](O)[C@H](C)[C@@H](C(C)C)O2)OC1=O [bafilomycin] | – | – | iron donation from NGAL:catechol:iron complex to cells (Mouse stromal cells): blocked |
| Maleic acid | 4 | No | – |

Reference: patent publication US20110268818A1, “NGAL-BINDING SIDEROPHORES AND USE THEREOF TO TREAT IRON DEFICIENCY AND IRON OVERLOAD” (priority 2008, published 2011)
